# Results reported in PubChem BioAssay (NCI).
#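 Test compounds were applied to cells in 96-well plates for 48 hours at 5 doses. The concentration for 50% growth inhibition is given as GI50. Definition used: TGI = concentration required for complete inhibition of growth.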
# Legend:
# Assay in all cases: NCI-60 cell line screen, 48 h
# [1] = tested on: COLO 205 colon
# [2] = tested on: EKVX NSCLC
# [3] = tested on: SR leukemia
# [4] = tested on: UACC-257 melanoma
# [5] = tested on: SW-620 colon
# [6] = tested on: SNB-19 CNS
# [7] = tested on: RXF 393 renal
# [8] = tested on: SK-MEL-28 melanoma
# [9] = tested on: HCT-116 colon
# [10] = tested on: HS 578T breast
# [11] = tested on: MDA-MB-435
# [12] = tested on: NCI-H460 lung
# [13] = tested on: HCC-2998 colon
# [14] = tested on: SF-539 CNS
# [15] = tested on: A498 renal
# [16] = tested on: OVCAR-5 ovarian
# [17] = tested on: CCRF-CEM leukemia
# [18] = tested on: OVCAR-3 ovarian
# [19] = tested on: NCI-H23 lung
# [20] = tested on: UACC-62 melanoma
# [21] = tested on: SNB-75 CNS
# [22] = tested on: SK-OV-3 ovarian
# [23] = tested on: IGROV1 ovarian
# [24] = tested on: OVCAR-8 ovarian
# [25] = tested on: NCI-H522 lung
# [26] = tested on: A549 NSCLC
# [27] = tested on: T-47D breast
# [28] = tested on: LOX IMVI melanoma
# [29] = tested on: HL-60(TB) leukemia
# [30] = tested on: MDA-MB-468 breast
# [31] = tested on: SK-MEL-2 melanoma
# [32] = tested on: MOLT-4 leukemia
# [33] = tested on: UO-31 renal
# [34] = tested on: M14 melanoma
# [35] = tested on: CAKI-1 renal
# [36] = tested on: HCT-15 colon
# [37] = tested on: OVCAR-4 ovarian
# [38] = tested on: PC-3 prostate
# [39] = tested on: SK-MEL-5 melanoma
# [40] = tested on: HOP-92 NSCLC
# [41] = tested on: MDA-MB-231 breast
# [42] = tested on: MALME-3M melanoma
# [43] = tested on: KM12 colon
# [44] = tested on: SF-295 CNS
# [45] = tested on: RPMI-8226 leukemia
# [46] = tested on: SF-268 CNS
# [47] = tested on: HOP-62 NSCLC
# [48] = tested on: HT29 colon
# [49] = tested on: DU-145 prostate
# [50] = tested on: BT-549 breast
# [51] = tested on: 786-0 renal
# [52] = tested on: NCI-H226 lung
# [53] = tested on: ACHN renal
# [54] = tested on: TK-10 renal
# [55] = tested on: U251 CNS
# [56] = tested on: K-562 leukemia
# [57] = tested on: NCI/ADR-RES ovarian
# [58] = tested on: SN12C renal
# [59] = tested on: MCF7 breast
smiles,measurement,setting,value
Nc1nc2cc(-c3ccc4ncnc(NCc5ccccc5)c4c3)ccc2o1,GI50,[1],14.4 µM
same,TGI,[1],30 µM
same,GI50,[2],3.47 µM
same,TGI,[2],20.2 µM
same,GI50,[3],10.3 µM
same,TGI,[3],27.6 µM
same,GI50,[4],14.4 µM
same,TGI,[4],32.2 µM
same,GI50,[5],9.63 µM
same,TGI,[5],31.1 µM
same,GI50,[6],10.8 µM
same,TGI,[6],25.4 µM
same,GI50,[7],3.62 µM
same,TGI,[7],16.3 µM
same,GI50,[8],12.4 µM
same,TGI,[8],24.8 µM
same,GI50,[9],3.89 µM
same,TGI,[9],17.5 µM
same,GI50,[10],2.41 µM
same,TGI,[10],7.52 µM
same,GI50,[11],11 µM
same,TGI,[11],24.6 µM
same,GI50,[12],6.48 µM
same,TGI,[12],27.7 µM
same,GI50,[13],9.11 µM
same,TGI,[13],23 µM
same,GI50,[14],4.08 µM
same,TGI,[14],14.9 µM
same,GI50,[15],3.55 µM
same,TGI,[15],18.1 µM
same,GI50,[16],4.03 µM
same,TGI,[16],16.9 µM
same,GI50,[17],6.08 µM
same,TGI,[17],30.2 µM
same,GI50,[18],3.49 µM
same,TGI,[18],21.6 µM
same,GI50,[19],10.9 µM
same,TGI,[19],35.6 µM
same,GI50,[20],14.7 µM
same,TGI,[20],29.6 µM
same,GI50,[21],2.15 µM
same,TGI,[21],5.24 µM
same,GI50,[22],3.26 µM
same,TGI,[22],12.1 µM
same,GI50,[23],1.98 µM
same,TGI,[23],5.5 µM
same,GI50,[24],3.41 µM
same,TGI,[24],17.7 µM
same,GI50,[25],8.72 µM
same,TGI,[25],38.4 µM
same,GI50,[26],4.16 µM
same,TGI,[26],29.4 µM
same,GI50,[27],10.4 µM
same,TGI,[27],35.3 µM
same,GI50,[28],3.07 µM
same,TGI,[28],15.9 µM
same,GI50,[29],10.4 µM
same,TGI,[29],24 µM
same,GI50,[30],1.81 µM
same,TGI,[30],7.67 µM
same,GI50,[31],14.7 µM
same,TGI,[31],30.6 µM
same,GI50,[32],4.43 µM
same,TGI,[32],19 µM
same,GI50,[33],4.01 µM
same,TGI,[33],18.3 µM
same,GI50,[34],12.4 µM
same,TGI,[34],35.6 µM
same,GI50,[35],7.7 µM
same,TGI,[35],21 µM
same,GI50,[36],6.45 µM
same,TGI,[36],27.3 µM
same,GI50,[37],7 µM
same,TGI,[37],28.1 µM
same,GI50,[38],12.7 µM
same,TGI,[38],31.9 µM
same,GI50,[39],12.2 µM
same,TGI,[39],28.1 µM
same,GI50,[40],2.11 µM
same,TGI,[40],7.5 µM
same,GI50,[41],7.96 µM
same,TGI,[41],21.4 µM
same,GI50,[42],3.2 µM
same,TGI,[42],13.3 µM
same,GI50,[43],6.77 µM
same,TGI,[43],25.6 µM
same,GI50,[44],14.1 µM
same,TGI,[44],35 µM
same,GI50,[45],3.83 µM
same,TGI,[45],22.3 µM
same,GI50,[46],10.9 µM
same,TGI,[46],43.4 µM
same,GI50,[47],10.7 µM
same,TGI,[47],34.3 µM
same,GI50,[48],7.45 µM
same,TGI,[48],58.3 µM
same,GI50,[49],4.7 µM
same,TGI,[49],20.5 µM
same,GI50,[50],4.31 µM
same,TGI,[50],16.7 µM
same,GI50,[51],13 µM
same,TGI,[51],26.3 µM
same,GI50,[52],10.1 µM
same,TGI,[52],39.4 µM
same,GI50,[53],5.27 µM
same,TGI,[53],18.2 µM
same,GI50,[54],2.98 µM
same,TGI,[54],16.1 µM
same,GI50,[55],10.4 µM
same,TGI,[55],32.6 µM
same,GI50,[56],11.2 µM
same,TGI,[56],23.2 µM
same,GI50,[57],11 µM
same,TGI,[57],49.5 µM
same,GI50,[58],5.14 µM
same,TGI,[58],18.3 µM
same,GI50,[59],2.47 µM
same,TGI,[59],11.1 µM
